Test results from patent publication US9353144B2, “Vascular leakage inhibitor” (INDUSTRY-ACADEMIC COOPERATION FOUNDATION, YONSEI UNIVERSITY, priority 2011, dated 2016).

Tests used:
[1] = test system: HRECs (Human Retinal Endothelial Cells); settings: cited from earlier work; for ability to inhibit apoptosis (derivatives of previous researches, control groups): obtained in the previous researches by the inventors (Korean Patent Application Publication No. 2011-0047170); for ability to inhibit apoptosis, comparison in the previous researches: relative to Rk1 or to other earlier derivatives
[2] = test system: HRECs (Human Retinal Endothelial Cells); experiment: Screening of synthesized derivatives for ability to inhibit serum depletion-induced vascular endothelial cell apoptosis (MTT assay, cell morphology); format: cell-based; settings: serum-free, 10 μg/ml; for ability to inhibit apoptosis, ranking among synthetic derivatives and control groups: comparison with control groups; for ability to inhibit apoptosis compared with Sac-1004: relative to control Sac-1004
Experimental: FIGS. 1a-1c and FIGS. 2a-2c show the result of screening Rk1 analogs that protect HRECs (Human Retinal Endothelial Cells) from serum depletion-induced apoptosis. HRECs (3×10^5 cells/well) were seeded on a 24-well plate in EGM9 medium containing 20% fetal bovine serum. The next day, the cells were transferred to a medium containing 10 μg/mL of the synthesized compound. Cell viability was determined by MTT assay 48 hours later. […] Con is indicative of cells treated with DMSO.
(§1) Human retinal endothelial cells (HRECs) purchased from Cell Systems (USA) were seeded on a 100 mm culture dish containing EGM medium (Life Technologies, USA) containing 20% (w/v) fetal bovine serum (FBS, HyClone, Canada), 100 units/mL penicillin (Invitrogen, USA), 100 μg/mL streptomycin (Invitrogen, USA), 3 ng/mL fibroblast growth factor (Upstate Biotechnology, USA) and 5 units/mL heparin and cultured in a 5% CO2 incubator at 37° C.
Based on the previous researches conducted by the present inventors, synthesized derivatives of Rk1 having a steroid backbone and having an ability to inhibit vascular endothelial cell apoptosis were screened. Vascular endothelial cells HRECs (3×10^5 cells/well) were plated on a 24-well plate in which 1 ml of EGM medium containing 20% fetal bovine serum was present. The next day, the cells were transferred to serum-free EGM media containing 10 μg/ml of the compounds synthesized in Synthetic Examples 1 and 2. After 24 hours, cell viability was determined by MTT assay (Mosmann T, Journal of Immunological Methods 65(1-2):5563(1983); Cory A H, et al., Cancer Communications 3(7):20712(1991)).

[3] = test system: HRECs (Human Retinal Endothelial Cells); experiment: Ability to inhibit apoptosis of Sac-1009, Sac-1104 and Sac-1019 according to concentration (serum removal, MTT assay); format: cell-based; settings: for inhibition of apoptosis of HRECs, concentration dependence: serum-free EGM, 0, 0.1, 1, 5 and 10 μg/ml; for inhibition of apoptosis of HRECs, concentration dependence / concentration of the most effective ability to inhibit apoptosis: MTT after 48 hours, FIG. 3; for concentration of the most effective ability to inhibit apoptosis: serum-free EGM, tested 0-10 μg/ml; for cell viability of HRECs in a serum depletion environment: summary of test examples 1 and 2
Experimental: HRECs (3×10^5 cells/well) were seeded on a 24-well plate in EGM medium containing 20% fetal bovine serum. The next day, the cells were transferred to a serum depletion EGM medium containing Sac-1009, Sac-1104 or Sac-1019. Sac-1009, Sac-1104 and Sac-1019 were added into the medium at a concentration of 0, 0.1, 1, 5 or 10 μg/mL, respectively. Cell viability was determined by MTT assay 48 hours later.
as §1
After apoptosis was induced by removing serum from the medium of vascular endothelial cells, Sac-1009, Sac-1104, and Sac-1019 were applied to cells to measure the ability to inhibit apoptosis. Vascular endothelial cells HRECs (3×10^5 cells/well) were plated on a 24-well plate in which 1 ml of EGM medium containing 20% fetal bovine serum was present. The next day, the cells were transferred to serum-free EGM media containing Sac-1009, Sac-1104, and Sac-1019. Sac-1009, Sac-1104, and Sac-1019 were added at concentrations of 0, 0.1, 1, 5, and 10 μg/ml. After 48 hours, cell viability was determined by MTT assay.

[4] = test system: HRECs (Human Retinal Endothelial Cells); experiment: Screening based on change in cytoskeleton: VEGF-induced actin stress fibers, rhodamine phalloidin staining; format: cell-based; settings: for ability to inhibit the formation of actin stress fibers induced by VEGF: confluent HRECs pretreated with 10 μg/mL compound for 1 hour before 20 ng/ml VEGF, FIGS. 4 and 5; for abilities to inhibit the formation of actin stress fibers induced by VEGF and maintain the cortical actin ring structure, ranking: confluent HRECs, pretreated 1 hour, 20 ng/ml VEGF
Experimental: Confluent HRECs were pretreated with the compounds (10 μg/mL) for 60 minutes before treating with 20 ng/mL VEGF. The cells were then stained with rhodamine phalloidin.
as §1
It is known that the change in the actin structure of the cytoskeleton is closely related with the permeability of vascular endothelial cells. Increased permeability of vascular endothelial cells leads to an increase in actin stress fibers and a decrease in cortical actin ring structures. Based on this, the ability to inhibit vascular endothelial permeability of the synthesized derivatives of Rk1 was screened. Confluent HRECs were pretreated with […] the synthesized compounds for 1 hour before the treatment with 20 ng/ml VEGF (Upstate Biotechnology). Then, the cells were fixed with 4% paraformaldehyde for 20 minutes at room temperature, and washed 3 times with PBS (pH 7.4). Then, the cells were permeabilized with 0.1% Triton X-100/PBS, and reacted with 0.1 mg/ml rhodamine phalloidin (Molecular Probes) for 1 hour. Then, the cells were observed under a fluorescence microscope (Olympus).

Row | SMILES | ability to inhibit apoptosis (derivatives of previous researches, control groups) [1] | ability to inhibit apoptosis, comparison in the previous researches [1] | ability to inhibit apoptosis, ranking among synthetic derivatives and control groups [2] | ability to inhibit apoptosis compared with Sac-1004 [2] | inhibition of apoptosis of HRECs, concentration dependence [3] | concentration of the most effective ability to inhibit apoptosis [3] [µg/mL] | cell viability of HRECs in a serum depletion environment [3] | ability to inhibit the formation of actin stress fibers induced by VEGF [4] | abilities to inhibit the formation of actin stress fibers induced by VEGF and maintain the cortical actin ring structure, ranking [4]
1 | CC(=O)OCC1OC(OC2CCC3(C)C(=CCC4C3CCC3(C)C(C(C)CCCC(C)C)CCC43)C2)C=CC1OC(C)=O (stereo not drawn) [Sac-0601] | having an ability to inhibit apoptosis | equivalent to that of Rk1 |  |  |  |  |  |  | 
2 | COC(=O)CCC/C=C(\C)[C@H]1CCC2C3CC=C4C[C@@H](OC5C=C[C@H](OC(C)=O)[C@@H](COC(C)=O)O5)CC[C@]4(C)C3CC[C@@]21C (stereo partly drawn) [Sac-1004] | having an ability to inhibit apoptosis | the most excellent |  |  |  |  |  |  | 
3 | CC(=O)OC[C@H]1OC(O[C@H]2CC[C@@]3(C)C(=CCC4C3CC[C@@]3(C)C4CC[C@@H]3/C(C)=N/OC3CCCC3)C2)C=C[C@@H]1OC(C)=O (stereo partly drawn) [Sac-1019] |  |  | the most excellent | equivalent to that of Sac-1004 | concentration-dependent manner | 10 | increase cell viability | inhibit the formation of actin stress fibers induced by VEGF | the most excellent
4 | CC(=O)OC[C@H]1OC(O[C@H]2CC[C@@]3(C)C(=CCC4C3CC[C@@]3(C)C4CC[C@@H]3/C(C)=N/OC3C=CCCC3)C2)C=C[C@@H]1OC(C)=O (stereo partly drawn) [Sac-1104] |  |  | the most excellent | equivalent to that of Sac-1004 | concentration-dependent manner | 10 | increase cell viability | inhibit the formation of actin stress fibers induced by VEGF | the most excellent
